# Key:
# [1] = system: keratinocyte-melanocyte co-cultures (Human HaCaT keratinocytes, human primary melanocytes); experiment: Induced pigmentation in keratinocyte-melanocyte co-cultures, DOPA staining and computerized image analysis; assay type: cell-based; details: three daily treatments; for Mean area: DOPA stain, relative pigmented area; for % increase: versus control
# Protocol: The peptide Peptide 1 and various pigments were tested, alone or in combination, with keratinocyte-melanocyte cultures for their effect on cell pigmentation, using DOPA staining and computerized image analysis. The pigments that were tested were copper chloride from Sigma (St. Louis, Mo.) and the water-soluble melanin derivative Melasyn-100™ from San-mar laboratories, Inc. (Elmsford, N.Y.). The pigments were tested at concentrations ranging from 0.0001% (W/V) to 0.1% (W/V) and peptides were tested at 50 μM.
# The assay was conducted in the following manner. Human HaCaT keratinocytes (Boukamp P., et al., J Cell Biol 106, 3, 761-771 (1988)) were maintained in Dulbecco's Modified Eagle's Medium (DMEM) containing 10% fetal bovine serum (FBS), 4.5 mg/ml glucose, 2 mM L-glutamine, 50 U/ml penicillin and 50 μg/ml streptomycin (Life Technologies, Gaithersburg, Md.). Cells were maintained at <80% confluency in 5% CO2 (v/v) and were used in experimental procedures up to culture passage 15. Human primary melanocytes (Clonetics, San Diego, Calif. or Cascade Biologics, Portland, Oreg.) were maintained according to manufacturer's instructions. To establish keratinocyte-melanocyte co-cultures, 6×10^4 melanocytes were plated in each well of a 24 well plate and maintained according to manufacturer's instructions.
# Melanocytes were rinsed three times with melanocyte growth media without PMA and keratinocytes (6×10^4) were plated to establish the co-cultures in this media. Co-cultures were treated for three days with test peptides and pigments, and assayed for cell viability and pigment level on the forth day. Cell viability was assayed using alamarBlue™ (Acumed International, West Lake, Ohio) following manufacturer's instructions. No change in viability was observed following three daily treatments with all tested material. All in vitro experiments were performed in triplicates, and were repeated at least three times.
# Following three daily treatments, the co-cultures were briefly fixed (10% buffered formalin from Fisher Scientific, 15 minutes), washed three times with Phosphate-buffered saline (PBS, from Life Technologies) and stained with L-3,4-Dihydroxyphenylalanine (DOPA, from Sigma, St. Louis, Mo.) 0.1% in PBS, for 5 hours at 37° C., followed by two PBS washes and formalin (10%, overnight) fixation. DOPA is a substrate for tyrosinase, therefore an increase in staining represents increased tyrosinase activity and pigment production. DOPA-stained monolayers were used for image analysis. All images were obtained and analyzed with Image Pro Plus 3.0 software (Media Cybernetics, Silver Spring, Md.). Parameters measured were surface area of stained material within melanocyte and keratinocytes and the total surface area of the cells in the culture, and the relative pigmented area was calculated. A value of 100% was assigned to untreated controls, and values of treatment groups were normalized to their relevant controls. In all experiments there was no difference between PBS-treated cells and untreated controls. Data are presented with standard deviation (SigmaPlot® 5.0, SPSS Science, Chicago, Ill.).
# Forskolin (Sigma, St. Louis, Mo.), a known inducer of pigmentation, served as a positive control and a reference point. Forskolin was administered at 1% (W/V).
# [2] = system: Dark skinned Yucatan microswine; experiment: Induced pigmentation in vivo, F&M-stained skin sections of topically treated swine; parameters: key: −1: Slight lightening; 0: No change; 1: Minimal increase in pigment deposition; 2: Increased pigment deposition; 3: Strong increase in pigment deposition, some increase in caps; 4: Strong increase in pigment deposition, strong increase in caps; details: topical, twice a day, five days/week, eight or nine weeks; average of all sites of responsive swine; positive controls 1% (W/V), peptides 250 or 500 μM, pigments 1% or 5% (W/V)
# Protocol: Compositions of the present invention were tested for their ability to induce in vivo pigmentation in skin cells in the following experiment. Dark skinned Yucatan microswine (Charles River, Portland, Me.) were housed in appropriately sized cages in an environmentally controlled room with a 12-hour light-12-hour dark photoperiod and supplied with food and water ad libitum. Animal care was based on the “Guide for the Care and Use of Laboratory Animals”, NIH Publication No. 85-23. Twenty μl of test peptides were applied topically, twice a day, five days/week, for eight or nine weeks, on the dorsum of the swine. Treatments of individual swine were always arranged in a head to tail order on one side, and in a tail to head order on the other side of the animal. Biopsies were taken using standard techniques.
# Sections from the skin biopsies were stained with Hematoxylin and Eosin (H&E), or with Fontana-Mason (F&M), using standard procedures (Sheenan DC, Hrapckak BB, eds., Theory and Practice of Histo-technology. p. 223, 277, The C. V. Mosby Co., St. Louis (1980)). F&M staining identifies silver nitrate reducing molecules. In skin, this non-specific stain identifies primarily melanin. At least three sections per biopsy were processed. […]
# F&M-stained histological skin sections were evaluated for the change in pigment deposition within the treated site. […]
compound,measurement,setting,value
"[Cl][Cu][Cl] [CuCl2, copper chloride]",Mean area,[1]; 0.001% (W/V),0.173
same,% increase,[1]; 0.001% (W/V),120%
same,Mean area,[1]; 0.1% (W/V),0.246
same,% increase,[1]; 0.1% (W/V),212%
C=C[C@@]1(C)CC(=O)[C@]2(O)[C@@]3(C)[C@@H](O)CCC(C)(C)[C@@H]3[C@H](O)[C@H](OC(C)=O)[C@@]2(C)O1 [Forskolin],Score (change in pigment deposition),[2],1
H2-Val-Gly-Val-Ala-Pro-Gly-NH2 (H-VGVAPG-NH2) [Peptide 1],Mean area,[1]; 50 μM,0.131
same,% increase,[1]; 50 μM,66.6%
same,Score (change in pigment deposition),[2],1
